Publication PMC3470887, “Protegrin-1 Inhibits Dengue NS2B-NS3 Serine Protease and Viral Replication in MK2 Cells” (Journal of Biomedicine and Biotechnology, 2012)

What was measured:
dengue NS2B-NS3pro = dengue NS2B-NS3pro (Dengue virus type 2, UniProt P14340); assay: Dengue NS2B-NS3pro protease inhibition assay (fluorogenic substrate Boc-Gly-Arg-Arg-MCA); format: biochemical, DENV-2
Procedure: The bioassay used in this study was modified from the method published by Kiat and coworkers. Reaction mixtures with total volume of 200 μL were prepared. These reaction mixtures consisted of 100 μM fluorogenic peptide substrate (Boc-Gly-Arg-Arg-MCA), 2 μM NS2B-NS3pro complex, with or without PG-1 of varying concentrations, buffered at pH 8.5 with 200 mM Tris-HCl. The PG-1 was initially prepared in Tris-HCl buffer and assayed at five different concentrations. The reaction mixtures without fluorogenic peptide substrate were firstly incubated at 37°Cfor 30 minutes. Subsequently, the substrate was added and the mixture was further incubated at the same temperature for 30 minutes. Triplicates were performed for all measurements and the readings were taken using Tecan Infinite M200 Pro fluorescence spectrophotometer. Substrate cleavage was optimized at the emission at 440 nm upon excitation at 350 nm. The readings were then used for calculating Km values of peptide substrate and IC50 values of peptide inhibitors using nonlinear regression models in GraphPad Prism 5.01 software.

DENV-2 = DENV-2 replication in infected MK2 cells, viral RNA by real-time PCR; format: cell-based, Dengue virus serotype 2; conditions: inferred from lower inhibition percentage of low concentrations at 48 and 72 hrs versus 24 hrs
Procedure: The MK2 cell lines were grown in a 24-well tissue culture plate (1 × 10^5 cells/well), incubated 24 hrs under optimal conditions (37°C and 5% CO2). DENV-2 was added to the wells (MOI of 2) followed by incubation for 1 hr with gentle shaking every 10 min for optimal virus to cell contact. The virus supernatant was removed, and the cells were washed twice with fresh serum free DMEM media to remove residual virus. New complete DMEM media containing 2.5, 7.5 and 12.5 μM of PG-1 were added and the cultures were incubated for 24, 48 and 72 hrs. Afterwards, cellular supernatants were collected and stored at −80°C for viral quantification by real-time PCR.
For quantification of DENV-2 copies, the standard curve was generated by 10-fold serial dilution of known copies of DENV-2 RNA. Viral RNA was extracted from culture supernatant using QIAmp viral RNA minikit (QIAGEN, Germany) according to the manufacturer's instructions. A fragment located at the 5′UTR region of the virus genome was used to generate the primers. One-step RT-PCR using SyBr Green Master Kit (Qiagen, Germany) was used to conduct absolute quantification using ABI7300 machine from Applied Biosystems (Foster City, CA). […] Results were analyzed using Sequence Detection Software Version 1.3 (Applied Biosystems, Foster City, CA, USA).

dengue NS2B-NS3pro, sequence (P14340 1394-1440 limits assumed): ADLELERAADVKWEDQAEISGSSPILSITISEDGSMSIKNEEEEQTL
dengue NS2B-NS3pro, sequence (P14340 1476-1660 limits assumed): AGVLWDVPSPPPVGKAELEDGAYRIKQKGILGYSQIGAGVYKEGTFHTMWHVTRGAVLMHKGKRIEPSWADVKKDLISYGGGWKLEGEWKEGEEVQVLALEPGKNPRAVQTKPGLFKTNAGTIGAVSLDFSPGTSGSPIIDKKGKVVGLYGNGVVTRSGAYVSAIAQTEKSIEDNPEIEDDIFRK

With `CC(C)C[C@H](NC(=O)[C@H](CCCNC(=N)N)NC(=O)CNC(=O)CNC(=O)[C@@H](N)CCCNC(=N)N)C(=O)N[C@H]1CSSC[C@@H](C(=O)N[C@H](C(=O)NCC(=O)N[C@@H](CCCNC(=N)N)C(N)=O)C(C)C)NC(=O)[C@H](C(C)C)NC(=O)[C@@H]2CSSC[C@H](NC(=O)[C@H](Cc3ccc(O)cc3)NC1=O)C(=O)N[C@@H](CCCNC(=N)N)C(=O)N[C@@H](CCCNC(=N)N)C(=O)N[C@@H](CCCNC(=N)N)C(=O)N[C@@H](Cc1ccccc1)C(=O)N2` [PG-1] the IC50 (dengue NS2B-NS3pro; 2 μM NS2B-NS3pro, 100 μM Boc-Gly-Arg-Arg-MCA, 200 mM Tris-HCl pH 8.5, 37°C, 30 min pre-incubation + 30 min, triplicates, nonlinear regression GraphPad Prism) was 11.7 µM, the inhibition at 40 µM (dengue NS2B-NS3pro; PG-1 at 40 μM, assayed at five concentrations, 10–160 μM) was 95.7% and the Ki (dengue NS2B-NS3pro; kinetic assay, PG-1 0, 2.5, 5, 10 and 20 μM, Michaelis-Menten nonlinear regression, GraphPad Prism, read-out: Ki (inhibition constant)) was 5.85 µM. For the same molecule, the “PG-1 stability in culture media” value (DENV-2) was “declined with longer incubation in culture media”.
